{
  "source": "patent US20070123488A1",
  "about": "“Pharmaceutical composition comprising a zinc-hyaluronate complex for the treatment of multiple sclerosis” (RICHTER GEDEON VEGYESZETI GYAR RT., priority 2003, published 2007)",
  "key": {"[1]": {"system": "experimental autoimmune encephalomyelitis (EAE) provoked by myelin oligodendrocyte glycoprotein (MOG)", "assay": "CR EAE provoked by MOG in mice, s.c. treatment", "assay_type": "in vivo", "conditions": "for ASC (treatment from day 5 to day 22): HMW Zn-HA 10 mg/kg, ZnCl2 equivalent to 0.8 mg/kg Zn2+; for Effect on the EAE model (in words): mice", "excerpt": "The only adequate and widely used model available for purposes of preclinical investigations of multiple sclerosis is the experimental autoimmune encephalomyelitis (EAE) (Mokhatarian et al., Nature 309, 356-358. (1984); Raine et al., Lab. Invest. 31, 369-380. (1974)), an inflammatory disease of the central nervous system transmitted by CD4^+ T-lymphocytes. Although the clinical complexity of the model is moderate compared with the disease investigated, its use is unavoidable in a research aimed at MS. Preclinical tests of Copolymer-1 (Copaxone) and interferon beta-1 already approved for human treatment, as well as those of the new drugs under development were/are carried out using this model (Popovic et al., Ann. Neurol. 51, 215-223. (2001); Stanislaus et al., Neurosci. Lett. 333, 167-170. (2002)). […] That's why in our experiments CR EAE provoked by myelin oligodendrocyte glycoprotein (MOG) in mice has been studied (Amor et al., J. Immunol. 153, 4349-4356. (1994)). In the middle of the 1960s the effect of hyaluronan sodium salt was investigated by Romanian research workers on EAE model.\nNext, the possible effect of the HMW Zn-HA (10 mg/kg in 200 μl of physiological saline, subcutane) on the time of appearance of clinical symptoms has been investigated.\nTests were carried out on groups of mice (n=6-10 mice/group) using two types of treatment: (i) prophylactic, wherein administration happens from day 5 to day 22 after inoculation of MOG, or in a single case from day 9-10 to day 28 after that (marked with # in tables 2 and 3); and (ii) therapeutic treatment, wherein administration of the Zn-HA happened from day 13 to day 28 after the EAE had been induced (marked with * in tables 2 and 3).\nThe mice were given 10 mg/kg HMW Zn-HA s. c. daily and clinical data thereof were obtained from day 10 to day 28 and day 5 to day 22, respectively, after the EAE had been induced. The results were calculated from the average daily clinical data to give the average summed up clinical data (ASC).\nIn the studies summarized in Tables 1 to 4 each mouse used as EAE model received 200 μl s. c. injection each; the injection contained the active ingredient or the carrier (0.9% sodium chloride aqueous solution). To obtain the doses given in terms of mg/kg bodyweight above solutions of different concentration were prepared as follows: […]"}, "EAE": {"system": "EAE", "conditions": "rabbits, intramuscularly; cited from earlier work"}, "[2]": {"target": "matrix metalloproteinases, particularly the MMP-9 (Homo sapiens, UniProt P14780)", "sequence (P14780 94-707)": "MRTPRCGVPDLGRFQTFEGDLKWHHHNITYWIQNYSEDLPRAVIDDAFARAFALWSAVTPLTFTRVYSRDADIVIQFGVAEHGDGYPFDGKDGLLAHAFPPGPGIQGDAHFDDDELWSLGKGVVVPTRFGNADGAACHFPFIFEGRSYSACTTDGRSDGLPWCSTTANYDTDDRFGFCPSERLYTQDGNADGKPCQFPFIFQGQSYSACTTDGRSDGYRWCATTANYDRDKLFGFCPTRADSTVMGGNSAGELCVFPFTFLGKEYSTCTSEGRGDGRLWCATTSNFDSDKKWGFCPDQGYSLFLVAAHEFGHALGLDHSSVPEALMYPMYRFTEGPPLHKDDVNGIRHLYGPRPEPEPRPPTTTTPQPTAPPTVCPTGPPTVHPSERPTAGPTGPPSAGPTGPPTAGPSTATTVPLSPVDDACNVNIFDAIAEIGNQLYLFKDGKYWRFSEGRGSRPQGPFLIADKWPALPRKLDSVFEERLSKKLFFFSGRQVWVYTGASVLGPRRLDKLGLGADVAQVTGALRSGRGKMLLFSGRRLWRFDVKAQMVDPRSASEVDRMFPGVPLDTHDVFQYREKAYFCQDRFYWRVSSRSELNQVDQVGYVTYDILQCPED", "conditions": "cited from earlier work"}, "[3]": {"conditions": "compared with the sodium-HA salt; cited from earlier work"}},
  "note": "Entries after “also recorded” stand apart in the source; their conditions may differ.",
  "data": [
    {"compound": "[Cl-].[Cl-].[Zn+2]", "note": "[ZnCl2, zinc chloride]", "values": [
      {"measurement": "ASC (treatment from day 5 to day 22)", "setting": "[1]", "value": "14.2 ± 3.3"},
      {"measurement": "Effect on the EAE model (in words)", "setting": "[1]", "value": "did not show significant effect"},
      {"measurement": "Effect on the EAE model (in words)", "setting": "[1]; listed as Zn^2+", "value": "ineffective"}
    ]},
    {"compound": "Na-hyaluronan [HMW Na-HA]", "values": [
      {"measurement": "Effect on development of EAE (in words)", "setting": "EAE", "value": "did not inhibit, but in certain cases did assist the development of EAE"},
      {"measurement": "Inhibitory effect on tissue damaging enzymes (matrix metalloproteinases, particularly the MMP-9)", "setting": "[2]", "value": "does not show the latter effect"},
      {"measurement": "ASC (treatment from day 5 to day 22)", "setting": "[1]", "value": "14.2 ± 1.9"},
      {"measurement": "Effect on the EAE model (in words)", "setting": "[1]; listed as Na-HA", "value": "ineffective"},
      {"measurement": "Effect on the EAE model (in words)", "setting": "[1]; listed as Na-HA salt", "value": "ineffective; also recorded: did not show significant effect"},
      {"measurement": "Effect on the EAE model (in words)", "setting": "[1]; listed as Na-hyaluronan", "value": "didn't exert any influence"}
    ]},
    {"compound": "zinc-hyaluronan complex [zinc-HA]", "values": [
      {"measurement": "Inhibitory effect on tissue damaging enzymes (matrix metalloproteinases, particularly the MMP-9)", "setting": "[2]", "value": "inhibitory effect"},
      {"measurement": "Antioxidant activity", "setting": "[3]", "value": "increased antioxidant activity"}
    ]}
  ]
}
